From ChEMBL document CHEMBL5303573, “Mapping human microbiome drug metabolism by gut bacteria and their genes” (Nature, 2019)

Legend:
[1] = The drug is tested on Ruminococcus torques strain: ATCC27756 for biotransformation. The drug concentrations were measured before and after a 12-h incubation by liquid-chromatography-coupled mass spectrometry (LC–MS); format: ADME; set-up: dose 2 uM, timepoint 0 vs 12 hours; conditions: 2 µM
[2] = The drug is tested on Bifidobacterium ruminantium strain: fecal isolate for biotransformation. The drug concentrations were measured before and after a 12-h incubation by liquid-chromatography-coupled mass spectrometry (LC–MS); conditions: 2 µM
[3] = bifidobacterium adolescentis, 12 h, 2 µM
Description: The drug is tested on Bifidobacterium adolescentis strain: ATCC 15703 for biotransformation. The drug concentrations were measured before and after a 12-h incubation by liquid-chromatography-coupled mass spectrometry (LC–MS)

[4] = The drug is tested on Eubacterium ventriosum strain: ATCC27560 for biotransformation. The drug concentrations were measured before and after a 12-h incubation by liquid-chromatography-coupled mass spectrometry (LC–MS); format: ADME; set-up: dose 2 uM, timepoint 0 vs 12 hours; conditions: 2 µM
[5] = The drug is tested on Ruminococcus lactaris strain: ATCC29176 for biotransformation. The drug concentrations were measured before and after a 12-h incubation by liquid-chromatography-coupled mass spectrometry (LC–MS); conditions: 2 µM
[6] = The drug is tested on Clostridium asparagiforme strain: DSM15981 for biotransformation. The drug concentrations were measured before and after a 12-h incubation by liquid-chromatography-coupled mass spectrometry (LC–MS); format: ADME; set-up: dose 2 uM, timepoint 0 vs 12 hours; conditions: enterocloster asparagiformis, 2 µM
[7] = The drug is tested on Bacteroides ovatus strain: ATCC8483 for biotransformation. The drug concentrations were measured before and after a 12-h incubation by liquid-chromatography-coupled mass spectrometry (LC–MS); conditions: 2 µM
[8] = The drug is tested on Clostridium scindens strain: ATCC35704 for biotransformation. The drug concentrations were measured before and after a 12-h incubation by liquid-chromatography-coupled mass spectrometry (LC–MS); conditions: 2 µM
[9] = The drug is tested on Blautia luti strain: DSM14534 for biotransformation. The drug concentrations were measured before and after a 12-h incubation by liquid-chromatography-coupled mass spectrometry (LC–MS); format: ADME; set-up: dose 2 uM, timepoint 0 vs 12 hours; conditions: 2 µM
[10] = bacteroides fragilis, 12 h, 2 µM
Description: The drug is tested on Bacteroides fragilis strain: 3397 (T10) for biotransformation. The drug concentrations were measured before and after a 12-h incubation by liquid-chromatography-coupled mass spectrometry (LC–MS)

[11] = The drug is tested on Clostridium sporogenes strain: ATCC15579 for biotransformation. The drug concentrations were measured before and after a 12-h incubation by liquid-chromatography-coupled mass spectrometry (LC–MS); conditions: 2 µM
[12] = bacteroides thetaiotaomicron, 12 h, 2 µM
Description: The drug is tested on Bacteroides thetaiotaomicron strain: 3731 for biotransformation. The drug concentrations were measured before and after a 12-h incubation by liquid-chromatography-coupled mass spectrometry (LC–MS)

[13] = The drug is tested on Bifidobacterium longum subsp. Infantis strain: CCUG52486 for biotransformation. The drug concentrations were measured before and after a 12-h incubation by liquid-chromatography-coupled mass spectrometry (LC–MS); conditions: 2 µM
[14] = The drug is tested on Clostridium sp. strain: fecal isolate for biotransformation. The drug concentrations were measured before and after a 12-h incubation by liquid-chromatography-coupled mass spectrometry (LC–MS); conditions: 2 µM
[15] = The drug is tested on Eubacterium hallii strain: DSM3353 for biotransformation. The drug concentrations were measured before and after a 12-h incubation by liquid-chromatography-coupled mass spectrometry (LC–MS); conditions: anaerobutyricum hallii, 2 µM
[16] = roseburia intestinalis, 12 h, 2 µM
Description: The drug is tested on Roseburia intestinalis strain: L1-82 for biotransformation. The drug concentrations were measured before and after a 12-h incubation by liquid-chromatography-coupled mass spectrometry (LC–MS)

[17] = bacteroides fragilis, 12 h, 2 µM; remark: listed apart in the source
Description: The drug is tested on Bacteroides fragilis strain: NCTC 9343 for biotransformation. The drug concentrations were measured before and after a 12-h incubation by liquid-chromatography-coupled mass spectrometry (LC–MS)

[18] = The drug is tested on Bacteroides dorei strain: DSM17855 for biotransformation. The drug concentrations were measured before and after a 12-h incubation by liquid-chromatography-coupled mass spectrometry (LC–MS); conditions: phocaeicola dorei, 2 µM
[19] = The drug is tested on Collinsella aerofaciens strain: ATCC25986 for biotransformation. The drug concentrations were measured before and after a 12-h incubation by liquid-chromatography-coupled mass spectrometry (LC–MS); conditions: 2 µM
[20] = The drug is tested on Bifidobacterium breve strain: DSM20213 for biotransformation. The drug concentrations were measured before and after a 12-h incubation by liquid-chromatography-coupled mass spectrometry (LC–MS); conditions: 2 µM

Compound | Bacterial Biotransformation [1] | Bacterial Biotransformation [2] | Bacterial Biotransformation [3] | Bacterial Biotransformation [4] | Bacterial Biotransformation [5] | Bacterial Biotransformation [6] | Bacterial Biotransformation [7] | Bacterial Biotransformation [8] | Bacterial Biotransformation [9] | Bacterial Biotransformation [10] | Bacterial Biotransformation [11] | Bacterial Biotransformation [12] | Bacterial Biotransformation [13] | Bacterial Biotransformation [14] | Bacterial Biotransformation [15] | Bacterial Biotransformation [16] | Bacterial Biotransformation [17] | Bacterial Biotransformation [18] | Bacterial Biotransformation [19] | Bacterial Biotransformation [20]
CCC(COC(=O)c1cc(OC)c(OC)c(OC)c1)(c1ccccc1)N(C)C.O=C(O)/C=C\C(=O)O (stereo not drawn) | Compound metabolized | Compound metabolized | Compound metabolized | Compound metabolized | Compound metabolized | Compound metabolized | Compound metabolized | Compound metabolized | Compound metabolized | Compound metabolized | Compound metabolized | Compound metabolized | Compound metabolized | Compound metabolized | Compound metabolized | Compound metabolized | Compound metabolized | Compound metabolized |  | 
O=C(NCc1ccccc1)OCCO [BURAMATE] | Compound NOT metabolized | Compound NOT metabolized | Compound NOT metabolized | Compound NOT metabolized | Compound NOT metabolized | Compound NOT metabolized | Compound NOT metabolized | Compound NOT metabolized | Compound NOT metabolized | Compound NOT metabolized | Compound NOT metabolized | Compound NOT metabolized | Compound NOT metabolized | Compound NOT metabolized | Compound NOT metabolized | Compound NOT metabolized | Compound NOT metabolized | Compound NOT metabolized | Compound NOT metabolized | 
CC(C)c1nc(N(C)S(C)(=O)=O)nc(-c2ccc(F)cc2)c1/C=C/[C@@H](O)C[C@@H](O)CC(=O)[O-].CC(C)c1nc(N(C)S(C)(=O)=O)nc(-c2ccc(F)cc2)c1/C=C/[C@@H](O)C[C@@H](O)CC(=O)[O-].[Ca+2] [ROSUVASTATIN CALCIUM] | Compound NOT metabolized | Compound NOT metabolized | Compound NOT metabolized | Compound NOT metabolized | Compound NOT metabolized | Compound NOT metabolized |  | Compound NOT metabolized | Compound NOT metabolized | Compound NOT metabolized | Compound NOT metabolized | Compound NOT metabolized | Compound NOT metabolized | Compound NOT metabolized | Compound NOT metabolized | Compound NOT metabolized | Compound NOT metabolized | Compound NOT metabolized | Compound NOT metabolized | Compound NOT metabolized
Nc1c2c(nc3ccccc13)CCCC2 [TACRINE] | Compound NOT metabolized | Compound NOT metabolized | Compound NOT metabolized | Compound NOT metabolized | Compound NOT metabolized | Compound NOT metabolized |  | Compound NOT metabolized | Compound NOT metabolized |  | Compound NOT metabolized | Compound NOT metabolized | Compound NOT metabolized | Compound NOT metabolized | Compound NOT metabolized | Compound NOT metabolized |  | Compound NOT metabolized | Compound NOT metabolized | Compound NOT metabolized
CN1C(C(=O)Nc2ccccn2)=C(O)c2sccc2S1(=O)=O [TENOXICAM] |  | Compound NOT metabolized | Compound NOT metabolized | Compound NOT metabolized | Compound NOT metabolized | Compound NOT metabolized | Compound NOT metabolized |  | Compound NOT metabolized | Compound NOT metabolized | Compound NOT metabolized | Compound NOT metabolized | Compound NOT metabolized | Compound NOT metabolized | Compound NOT metabolized | Compound NOT metabolized |  | Compound NOT metabolized | Compound NOT metabolized | Compound NOT metabolized
CC(CN(C)C)CN1c2ccccc2CCc2ccccc21.O=C(O)/C=C\C(=O)O (stereo not drawn) [TRIMIPRAMINE MALEATE] | Compound NOT metabolized | Compound NOT metabolized | Compound NOT metabolized | Compound NOT metabolized | Compound NOT metabolized | Compound NOT metabolized | Compound NOT metabolized |  | Compound NOT metabolized | Compound NOT metabolized | Compound NOT metabolized | Compound NOT metabolized | Compound NOT metabolized | Compound NOT metabolized | Compound NOT metabolized | Compound NOT metabolized |  | Compound NOT metabolized | Compound NOT metabolized | Compound NOT metabolized
